# In US9809640B2, “ApoE peptide dimers and uses thereof” (priority 2010, dated 2017):
# Positions of bridges follow the written chain, without caps; N, C: chain ends. Chains are numbered I, II in the order given.
# What was measured:
# [1] = Mouse toxicity, maximum tolerated dose by intravenous injection; conditions: in vivo, maximum dose by intravenous injection without deaths after 24 hrs
# PP2A = PP2A activity in 32D:BCR/Abl chronic myelogenous leukemia cells (PP2A immunoprecipitation assay); type: cell-based; conditions: 1 μM, 32D:BCR/Abl cells
# Procedure: FIGS. 4A-4B. The BMOE-linked dimer peptide COG449 activates PP2A in CML cells. FIG. 4A: 32D-BCR/Abl chronic myelogenous leukemia cells were treated with COG449 (1 μM), COG445 (1 μM) (disulfide-linked COG112 dimer) or no treatment, and the PP2A activity was measured. FIG. 4B: 32D:BCR/Abl cell cultures were treated with no compound, 1 μM COG449, or 5 μM FTY720 for 30 minutes followed by lysis in an NP40 lysis buffer. PP2A was immunoprecipitated and assayed with the PP2A Immunoprecipitation assay kit (Upstate) according to the manufacturer's directions.
# To further evaluate the effect of COG449, we measured the ability of the stable dimerized COG449 compound to activate PP2A in 32D:p210^BCR/Abl chronic myelogenous leukemia cells. […] 32D:p210^BCR/Abl chronic myelogenous leukemia cells were treated with no compound, 1 μM COG449, or 5 μM FTY720. We observed a robust increase of approximately 45% relative specific activity (phosphate release/minute/unit protein) of PP2A upon treatment with COG449 alone when compared to the untreated control, and about 20% activation compared with FTY720 (FIG. 4B).
# normal B-cells = assay: Cytotoxicity on normal B-cells from volunteers; type: cell-based, human
# Procedure: (§1) Blood from CLL patients was collected and CD5+/CD19+ CLL cells were isolated using the RosetteSep™ Human B-Cell Enrichment Cocktail, according to the manufacturer's instructions, and treated with COG compounds. Compounds were applied to B-CLL cells (2.5×10^5 cells/well in a 96 well plate), after which the cells were treated for 72 hours.
# (§2) Normal B-cells from volunteers and B-CLL cells from patients are isolated using the RosetteSep™ Human B Cell Enrichment Cocktail according to the manufacturer's instructions. This method depletes whole blood of T cells, monocytes, and NK cells using a proprietary antibody cocktail that cross-links unwanted cells in human whole blood to multiple red blood cells (RBCs) forming immunorosettes. This increases the density of the unwanted (rosetted) cells, such that they pellet along with the free RBCs when centrifuged over a buoyant density medium such as Ficoll-Paque®. This leaves the highly enriched B-cell or B-CLL cells at the interface between Ficoll and the plasma. The antibodies in the cocktail contain anti-CD14, anti-CD2 and anti-CD16 antibodies to remove T cells, monocytes, and NK cells, respectively. The purity of these B-cell and B-CLL preparations is then determined by flow cytometry. Preparations typically average less than 2% CD3+ T-cells and less than 0.5% CD14+ monocytes. In the case of B-CLL cell isolation, we routinely obtain preparations that contain less than 1.5% normal CD19+/CD5− B-cells using this method.
# [2] = Cytotoxicity on normal B-cells from volunteers; type: cell-based, human; conditions: human, normal B-cells from volunteers
# Procedure: as §1, §2
# PDK1 = PDK1 activation, Western blot; type: cell-based; conditions: U87 and MB231
# Source text: FIGS. 10A-10B. […] FIG. 10A: Western blot analysis of U87 glioblastoma cells exposed to the indicated concentrations of COG445 peptide in the presence of EGF. The blot is probed with antibodies for the activated EGF receptor (P-EGFR), total EGF receptor, activated PDK1 (P-PDK1), and total PDK1. FIG. 10B: Western blot and densitometry analysis of Akt activation induced by EGF in U87 cells in the presence of increasing concentrations of COG445.
# Akt signaling is often dysregulated in cancers thereby promoting cellular survival and proliferation. […] Given the effect of ApoE peptides on other inflammatory pathologies, we investigated the effect of an ApoE peptide dimer on Akt signaling in breast and brain cancer cells. A disulfide dimer of COG112 (SEQ ID NO: 1) was prepared as described in Example 1 (COG445). Adherent breast cancer cells, MDA-MB-231 (MB231), or glioblastoma cells, U87-MG (U87), were serum starved overnight and then exposed to COG445 for 2 hours before stimulating with epidermal growth factor (EGF) for 5 minutes. […] EGFR activation results in the activation of the PI3K/Akt signaling pathway, which is mediated by PDK1 activation.
# GSK-3β = GSK-3β phosphorylation in MB231 cells, Western blot; type: cell-based; conditions: markedly reduced at ≧100 nM
# Source text: FIG. 13A: Western blot and densitometry analysis of phosphorylated m-TOR levels in MDA-MB-231 cells treated with EGF and the indicated concentrations of COG445 in the presence or absence of okadaic acid. FIG. 13B: Western blot analysis of phosphorylated GSK-3β levels in MDA-MB-231 cells treated with EGF and the indicated concentrations of COG445 in the presence or absence of okadaic acid.
# Akt exerts its proliferative signal by phosphorylating protein substrates such as mTOR and GSK-3β. To examine the effects of COG445 on downstream Akt signaling in MB231 cells, mTOR activation and GSK-3β inhibition was measured by western blot analysis. […] The reduction in mTOR and GSK-3β phosphorylation was eliminated in the presence of okadaic acid, further evidence that PP2A mediates the effects of COG445 on Akt signaling.
# U87MG glioblastoma cells = type: cell-based; conditions: U87, ~24 hours
# MDA-MB-231 cells = assay: MB231 cellular proliferation by cell count; type: cell-based
# Procedure: FIG. 14A: Dose response curve of COG445 on proliferation of U87 (open circles) and MDA-MB-231 (filled circles) cells as measured by MTT reduction. FIG. 14B: Dose response curve of COG445 on proliferation of MDA-MB-231 cells as measured by cell count.
# Because COG445 inhibited Akt activation and downstream signaling, we examined the effects of COG445 on cellular proliferation. Adherent MB231 and U87 cells were grown for ˜24 hours in the presence of COG445 and cellular proliferation was measured by MTT reduction. […] Furthermore, COG445 inhibited MB231 cellular proliferation as determined by cell count (FIG. 14B). Approximately 6×10^4 cells were plated in growth media (RPMI+10% FBS) for 24-hours with increasing concentrations of COG445. […] However at concentrations ≧1 μM COG445, there appears to be a loss of cells. This is partially explained by decreased proliferation, although it is possible that the rate of cellular degradation was increased in the presence of COG445.
substance,measurement,setting,value
"I: Ac-RQIKIWFQNRRMKWKKCLRVRLASHLRKLRKRLL-NH2 / II: Ac-RQIKIWFQNRRMKWKKCLRVRLASHLRKLRKRLL-NH2 (disulfide I:17-II:17) [COG445, COG112-C-C-COG112]",MTD at 24 h,[1],28 mg/kg
same,phosphate release due to activation of PP2A relative to untreated control cells,PP2A,increased phosphate release
same,EC50 normal B-cells relative to CLL cells,normal B-cells,~200 fold
same,EC50 at 72 h,[2],> 10 µM
same,PDK1 activation (serine 241 phosphorylation),PDK1,did not alter
same,GSK-3β phosphorylation upon EGF stimulation,GSK-3β,dose-dependent decrease
same,proliferation by MTT reduction,U87MG glioblastoma cells,dose-dependent decrease
same,cellular proliferation by cell count,MDA-MB-231 cells; 0.1 μM,slight decrease
same,cellular proliferation by cell count,MDA-MB-231 cells; 24 hours,inhibited
same,cell count,MDA-MB-231 cells; ≧1 μM,loss of cells
